The values that follow come from patent US6645984B2, “Arylisoxazoline derivatives, processes for their preparation and their use as pesticides” (Aventis CropScience GmbH, priority 2001, dated 2003).

The test system of this test is Spodoptera litoralis. As to the kind of experiment: whole plant or invertebrate. Format: in vivo. The note with it: 96 h, read-out: larvae mortality. As to the method:
Nutrient medium (freeze-dried cube) is dipped into an aqueous solution of the formulated preparation to be examined and then placed into a Petri dish. Ten L2 larvae of the Egyptian cotton leaf worm (Spodoptera litoralis) are then added. The Petri dish is then closed with a lid. The effect of the preparation on the larvae is determined after 4 days of storage at about 23° C. At a concentration of 500 ppm (based on the content of active compound), the preparations of Example Nos. 5, 9, 12, 28, 29, 30, 35, 39, 40, 41, 42, 43, 45, 46, 48, 52, 63, 87, 90, 91, 92, 94, 97, 98, 99, 100, 103, 107, 113, 117, 120, 125, 566, 567, 573, 574, 589, 600, 613, 614, 619, 626 effect a larvae mortality of 80-100%.

Structures are written as SMILES.

Broadly, the mortality is the percentage killed.

Turning to `CC1=NOC(c2ccc(C3COC(c4c(F)cccc4F)=N3)cc2)C1` (stereo not shown) [Example 566, 2-(2,6-Difluorophenyl)-4-(4-(3-methylisoxazolin-5-yl)phenyl)oxazoline], the mortality at 500 ppm was in the range of 80 to 100%.
